According to publication PMC6139576 (Journal of Medicinal Chemistry, 2018):
Each block holds one compound with its values, some of them ahead of it.

Tests used:
rat EAAT4 (rEAAT4) = target: T1, rat EAAT4 (rEAAT4) (Rattus norvegicus, UniProt O35921); test: [3H]-D-Asp uptake assay, rEAAT4-tsA201 cells; format: cell-based
T1 sequence (O35921 1-561): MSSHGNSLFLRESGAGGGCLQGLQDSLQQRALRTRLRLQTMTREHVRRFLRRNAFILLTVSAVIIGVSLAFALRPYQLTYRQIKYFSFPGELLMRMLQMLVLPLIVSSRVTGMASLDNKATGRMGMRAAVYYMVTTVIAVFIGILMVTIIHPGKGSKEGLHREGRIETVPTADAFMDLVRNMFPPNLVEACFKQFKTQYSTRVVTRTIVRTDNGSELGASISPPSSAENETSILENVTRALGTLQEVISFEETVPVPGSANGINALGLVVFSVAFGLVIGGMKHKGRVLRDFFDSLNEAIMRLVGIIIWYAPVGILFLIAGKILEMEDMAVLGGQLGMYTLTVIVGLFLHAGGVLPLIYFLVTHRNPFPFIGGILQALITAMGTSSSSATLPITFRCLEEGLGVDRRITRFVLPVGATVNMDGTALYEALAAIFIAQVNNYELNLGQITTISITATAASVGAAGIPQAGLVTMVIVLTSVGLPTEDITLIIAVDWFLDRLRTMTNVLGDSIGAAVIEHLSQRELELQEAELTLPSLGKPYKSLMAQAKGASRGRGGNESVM

human EAAT2 (hEAAT2) = human EAAT2 (hEAAT2) (Homo sapiens, UniProt P43004); test: [3H]-D-Asp uptake assay, hEAAT2-HEK293 cells; format: cell-based
human EAAT1 (hEAAT1) = human EAAT1 (hEAAT1) (Homo sapiens, UniProt P43003); test: [3H]-D-Asp uptake assay, hEAAT1-HEK293 cells; format: cell-based
EAAT3 = details: cited from earlier work
human EAAT3 (hEAAT3) = target: T2, human EAAT3 (hEAAT3) (Homo sapiens, UniProt P43005); test: [3H]-D-Asp uptake assay, hEAAT3-HEK293 cells; format: cell-based; details: hEAAT3 pIC50 ± S.E.M.
T2 sequence (P43005 1-524): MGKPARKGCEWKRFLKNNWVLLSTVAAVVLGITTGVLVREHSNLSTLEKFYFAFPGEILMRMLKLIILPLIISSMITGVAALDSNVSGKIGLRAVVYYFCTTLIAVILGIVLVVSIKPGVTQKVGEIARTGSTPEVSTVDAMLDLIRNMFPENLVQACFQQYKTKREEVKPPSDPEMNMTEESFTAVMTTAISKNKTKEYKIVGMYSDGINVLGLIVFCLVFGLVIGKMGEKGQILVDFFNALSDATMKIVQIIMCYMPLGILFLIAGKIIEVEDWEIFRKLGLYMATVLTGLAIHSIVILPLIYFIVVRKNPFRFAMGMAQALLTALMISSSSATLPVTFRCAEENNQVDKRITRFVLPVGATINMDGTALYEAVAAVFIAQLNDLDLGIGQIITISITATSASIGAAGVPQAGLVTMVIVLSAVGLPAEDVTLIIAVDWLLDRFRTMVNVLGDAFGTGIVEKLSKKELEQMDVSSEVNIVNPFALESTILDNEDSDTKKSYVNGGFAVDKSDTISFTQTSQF

Sequence of human EAAT1 (hEAAT1) (P43003 whole entry, the tested form may be a part): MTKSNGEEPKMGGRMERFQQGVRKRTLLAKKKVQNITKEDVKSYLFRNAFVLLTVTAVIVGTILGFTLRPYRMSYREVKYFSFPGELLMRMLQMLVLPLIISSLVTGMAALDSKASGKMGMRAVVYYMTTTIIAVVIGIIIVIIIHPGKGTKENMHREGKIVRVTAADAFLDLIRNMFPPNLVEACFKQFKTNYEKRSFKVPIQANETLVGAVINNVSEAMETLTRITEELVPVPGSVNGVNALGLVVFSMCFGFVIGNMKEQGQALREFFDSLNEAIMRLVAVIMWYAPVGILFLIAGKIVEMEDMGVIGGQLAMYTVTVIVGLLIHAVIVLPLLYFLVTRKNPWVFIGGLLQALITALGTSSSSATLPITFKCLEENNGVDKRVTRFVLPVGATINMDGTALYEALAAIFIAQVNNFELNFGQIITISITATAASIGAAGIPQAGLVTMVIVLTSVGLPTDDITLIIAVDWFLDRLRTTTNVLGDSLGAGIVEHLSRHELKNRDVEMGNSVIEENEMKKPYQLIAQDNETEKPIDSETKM
Sequence of human EAAT2 (hEAAT2) (P43004 whole entry, the tested form may be a part): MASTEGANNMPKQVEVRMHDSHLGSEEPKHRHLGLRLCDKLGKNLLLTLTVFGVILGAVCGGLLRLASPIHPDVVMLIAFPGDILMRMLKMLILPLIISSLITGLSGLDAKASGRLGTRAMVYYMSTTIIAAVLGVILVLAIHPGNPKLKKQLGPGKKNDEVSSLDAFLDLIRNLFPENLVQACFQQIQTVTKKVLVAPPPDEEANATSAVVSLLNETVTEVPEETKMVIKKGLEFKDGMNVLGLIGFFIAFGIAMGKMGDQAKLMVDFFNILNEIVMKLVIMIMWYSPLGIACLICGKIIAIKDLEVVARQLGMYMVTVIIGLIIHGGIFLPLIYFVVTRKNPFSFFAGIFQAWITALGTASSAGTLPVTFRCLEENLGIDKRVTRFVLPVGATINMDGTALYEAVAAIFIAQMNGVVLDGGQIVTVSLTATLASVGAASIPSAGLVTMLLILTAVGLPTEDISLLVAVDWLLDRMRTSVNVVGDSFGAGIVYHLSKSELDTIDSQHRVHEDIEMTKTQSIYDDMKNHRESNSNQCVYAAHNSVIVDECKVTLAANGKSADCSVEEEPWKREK

fold increased IC50 at rEAAT4 relative to L-TFB-TBOA (rat EAAT4 (rEAAT4); versus L-TFB-TBOA (3a)): 5–10 fold
fold increased IC50 at hEAAT2 relative to L-TFB-TBOA (human EAAT2 (hEAAT2); versus L-TFB-TBOA (3a)): 5–10 fold
fold increased IC50 at hEAAT1 relative to L-TFB-TBOA (human EAAT1 (hEAAT1); versus L-TFB-TBOA (3a)): 5–10 fold
SMILES: N[C@H](C(=O)O)[C@H](OCc1cccc(NC(=O)Cc2ccc(C(F)(F)F)cc2)c1)C(=O)O [3d]

SMILES: N[C@H](C(=O)O)[C@H](Cc1ccccc1)C(=O)O [compound 4, L-threo-3-benzylaspartate]
preference as an inhibitor for EAAT3 over EAAT1 and EAAT2 (EAAT3): 10 fold

IC50 (rat EAAT4 (rEAAT4)): 4.27 µM
SMILES: N[C@H](C(=O)O)[C@H](OCc1ccsc1)C(=O)O (racemic) [DL-threo-19b, (DL-threo)-3-(Thiophen-3-ylmethoxy)aspartate]

IC50 (human EAAT3 (hEAAT3)): 28.2 µM
IC50 (rat EAAT4 (rEAAT4)): ~100 µM
IC50 (human EAAT2 (hEAAT2); hEAAT2 IC50, [3H]-D-Asp uptake, HEK293 cells): 82 µM
IC50 (human EAAT1 (hEAAT1); hEAAT1 IC50, [3H]-D-Asp uptake, HEK293 cells): 99 µM
SMILES: C#CCO[C@H](C(=O)O)[C@@H](N)C(=O)O (racemic) [DL-erythro-19c, (DL-erythro)-3-(Prop-2-yn-1-yloxy)aspartate]

IC50 (human EAAT3 (hEAAT3)): 3.72 µM
IC50 (rat EAAT4 (rEAAT4)): 15.8 µM
SMILES: N[C@H](C(=O)O)[C@H](OCC1CC1)C(=O)O (racemic) [DL-threo-19a, (DL-threo)-3-(Cyclopropylmethoxy)aspartate]
